# ChEMBL document CHEMBL1201861, “Genomics of Drug Sensitity in Cancer screening data, Wellcome Trust Sanger Institute”
# Experiments:
# Assay in all cases: cells
# COLO-829 = type: functional, cell-based, Homo sapiens; conditions: Homo sapiens, COLO-829
# Description: SANGER: Inhibition of human COLO-829 cell growth in a cell viability assay.
# Calu-3 = type: functional, cell-based, Homo sapiens; conditions: Homo sapiens, Calu-3;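 note: growth inhibition of human Calu-3 cells, determined with a cell viability assay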
# Description: SANGER: Inhibition of human Calu-3 cell growth in a cell viability assay.
# Calu-6 = type: functional, cell-based, Homo sapiens; conditions: Homo sapiens, Calu-6;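 note: growth of human Calu-6 cells, read out by a cell viability assay, IC50 marking inhibition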
# Description: SANGER: Inhibition of human Calu-6 cell growth in a cell viability assay.
# D-247MG = type: functional, cell-based, Homo sapiens; conditions: Homo sapiens, D-247MG
# Description: SANGER: Inhibition of human D-247MG cell growth in a cell viability assay.
# D283 Med = type: functional, cell-based, Homo sapiens; conditions: Homo sapiens, D283 Med
# Description: SANGER: Inhibition of human D-283MED cell growth in a cell viability assay.
# EGI-1 = type: functional, cell-based, Homo sapiens; conditions: Homo sapiens, EGI-1;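 note: cell viability readout used to gauge growth inhibition of EGI-1 cells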
# Description: SANGER: Inhibition of human EGI-1 cell growth in a cell viability assay.
# EOL1 = type: functional, cell-based; conditions: Homo sapiens;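 note: growth inhibition of EoL-1 cells, read out by a cell viability assay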
# Description: SANGER: Inhibition of human EoL-1-cell cell growth in a cell viability assay.
# G-402 = type: functional, cell-based, Homo sapiens; conditions: Homo sapiens, G-402
# Description: SANGER: Inhibition of human G-402 cell growth in a cell viability assay.
# GOTO = type: functional, cell-based, Homo sapiens; conditions: Homo sapiens, GOTO;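 note: growth inhibition of GOTO cells, read out by a cell viability assay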
# Description: SANGER: Inhibition of human GOTO cell growth in a cell viability assay.
# HCC2218 = type: functional, cell-based; conditions: Homo sapiens;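 note: cell viability assay read-out, with IC50 given as the concentration that inhibits growth of the cell line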
# Description: SANGER: Inhibition of human HCC2218 cell growth in a cell viability assay.
# HH = type: functional, cell-based; conditions: Homo sapiens
# Description: SANGER: Inhibition of human HH cell growth in a cell viability assay.
# HT-29 = type: functional, cell-based, Homo sapiens; conditions: Homo sapiens, HT-29;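 note: growth inhibition of human HT-29 cells, read out by a cell viability assay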
# Description: SANGER: Inhibition of human HT-29 cell growth in a cell viability assay.
# HuP-T3 = type: functional, cell-based, Homo sapiens; conditions: Homo sapiens, HuP-T3;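 note: HuP-T3 cell growth inhibition, read out with a cell viability assay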
# Description: SANGER: Inhibition of human HuP-T3 cell growth in a cell viability assay.
# KLE = type: functional, cell-based, Homo sapiens; conditions: Homo sapiens, KLE;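 note: growth inhibition of human KLE cells, read out with a cell viability assay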
# Description: SANGER: Inhibition of human KLE cell growth in a cell viability assay.
# KP-N-YS = type: functional, cell-based; conditions: Homo sapiens;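 note: cell viability assay measuring inhibition of cell line growth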
# Description: SANGER: Inhibition of human KP-N-YS cell growth in a cell viability assay.
# LAMA-84 = type: functional, cell-based; conditions: Homo sapiens;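 note: growth inhibition of LAMA-84 cells, read out with a cell viability assay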
# Description: SANGER: Inhibition of human LAMA-84 cell growth in a cell viability assay.
# LOX IMVI = type: functional, cell-based; conditions: Homo sapiens
# Description: SANGER: Inhibition of human LOXIMVI cell growth in a cell viability assay.
# LS-1034 = type: functional, cell-based, Homo sapiens; conditions: Homo sapiens, LS-1034
# Description: SANGER: Inhibition of human LS-1034 cell growth in a cell viability assay.
# MFH-ino = type: functional, cell-based; conditions: Homo sapiens;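 note: growth inhibition of human MFH-ino cells, read out by a cell viability assay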
# Description: SANGER: Inhibition of human MFH-ino cell growth in a cell viability assay.
# MHH-NB-11 = type: functional, cell-based, Homo sapiens; conditions: Homo sapiens, MHH-NB-11;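 note: growth inhibition of human MHH-NB-11 cells, read out by a cell viability assay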
# Description: SANGER: Inhibition of human MHH-NB-11 cell growth in a cell viability assay.
# MKN-1 = type: functional, cell-based, Homo sapiens; conditions: Homo sapiens, MKN-1;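 note: growth inhibition of human MKN1 cells, read out by a cell viability measurement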
# Description: SANGER: Inhibition of human MKN1 cell growth in a cell viability assay.
# MPP-89 = type: functional, cell-based, Homo sapiens; conditions: Homo sapiens, MPP-89;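 note: growth inhibition of human MPP-89 cells, read out with a cell viability assay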
# Description: SANGER: Inhibition of human MPP-89 cell growth in a cell viability assay.
# MZ2-MEL = type: functional, cell-based, Homo sapiens; conditions: Homo sapiens, MZ2-MEL;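 note: growth inhibition of MZ2-MEL cells read out with a cell viability assay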
# Description: SANGER: Inhibition of human MZ2-MEL cell growth in a cell viability assay.
# NCI-H1693 = type: functional, cell-based, Homo sapiens; conditions: Homo sapiens, NCI-H1693;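 note: growth inhibition of the human cell line, read out with a cell viability assay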
# Description: SANGER: Inhibition of human NCI-H1693 cell growth in a cell viability assay.
# NCI-H1993 = type: functional, cell-based, Homo sapiens; conditions: Homo sapiens, NCI-H1993;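 note: growth inhibition of the cancer cell line, assessed with a cell viability assay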
# Description: SANGER: Inhibition of human NCI-H1993 cell growth in a cell viability assay.
# NCI-H2405 = type: functional, cell-based, Homo sapiens; conditions: Homo sapiens, NCI-H2405;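 note: growth inhibition of the human cell line, read out with a cell viability assay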
# Description: SANGER: Inhibition of human NCI-H2405 cell growth in a cell viability assay.
# NCI-H292 = type: functional, cell-based, Homo sapiens; conditions: Homo sapiens, NCI-H292;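 note: growth inhibition of NCI-H292 cells, read out with a cell viability assay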
# Description: SANGER: Inhibition of human NCI-H292 cell growth in a cell viability assay.
# NCI-H358 = type: functional, cell-based, Homo sapiens; conditions: Homo sapiens, NCI-H358;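 note: growth inhibition of NCI-H358 human cells, read out with a cell viability assay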
# Description: SANGER: Inhibition of human NCI-H358 cell growth in a cell viability assay.
# SH-4 = type: functional, cell-based, Homo sapiens; conditions: Homo sapiens, SH-4;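 note: growth inhibition of SH-4 cells, read out with a cell viability assay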
# Description: SANGER: Inhibition of human SH-4 cell growth in a cell viability assay.
# SK-MEL-2 = type: functional, cell-based, Homo sapiens; conditions: Homo sapiens, SK-MEL-2;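 note: growth inhibition of human SK-MEL-2 cells measured with a cell viability assay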
# Description: SANGER: Inhibition of human SK-MEL-2 cell growth in a cell viability assay.
# SK-MES-1 = type: functional, cell-based, Homo sapiens; conditions: Homo sapiens, SK-MES-1;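 note: growth inhibition of human SK-MES-1 cells, read out with a cell viability assay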
# Description: SANGER: Inhibition of human SK-MES-1 cell growth in a cell viability assay.
# SW1783 = type: functional, cell-based; conditions: Homo sapiens;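 note: cell growth inhibition measured with a viability assay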
# Description: SANGER: Inhibition of human SW1783 cell growth in a cell viability assay.
# SW 962 = type: functional, cell-based, Homo sapiens; conditions: Homo sapiens, SW 962;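 note: growth inhibition of human SW962 cells, read out by a cell viability assay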
# Description: SANGER: Inhibition of human SW962 cell growth in a cell viability assay.
# T-24 = type: functional, cell-based, Homo sapiens; conditions: Homo sapiens, T-24;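 note: growth inhibition of T-24 cells, read out with a cell viability assay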
# Description: SANGER: Inhibition of human T-24 cell growth in a cell viability assay.
# T98G = type: functional, cell-based, Homo sapiens; conditions: Homo sapiens, T98G;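 note: growth inhibition of T98G cells, read out by a cell viability assay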
# Description: SANGER: Inhibition of human T98G cell growth in a cell viability assay.
# TE-1 = type: functional, cell-based, Homo sapiens; conditions: Homo sapiens, TE-1
# Description: SANGER: Inhibition of human TE-1 cell growth in a cell viability assay.
# 697 = type: functional, cell-based; conditions: Homo sapiens
# Description: SANGER: Inhibition of human 697 cell growth in a cell viability assay.
# 786-0 = type: functional, cell-based, Homo sapiens; conditions: Homo sapiens
# Description: SANGER: Inhibition of human 786-0 cell growth in a cell viability assay.
# A-375 = type: functional, cell-based, Homo sapiens; conditions: Homo sapiens, A-375;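 note: growth inhibition of A375 cells, read out with a cell viability assay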
# Description: SANGER: Inhibition of human A375 cell growth in a cell viability assay.
# A704 = type: functional, cell-based, Homo sapiens; conditions: Homo sapiens, A704;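 note: growth inhibition of human A704 cells, read out with a cell viability assay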
# Description: SANGER: Inhibition of human A704 cell growth in a cell viability assay.
# AGS = type: functional, cell-based, Homo sapiens; conditions: Homo sapiens, AGS;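 note: growth inhibition of AGS cells, determined with a cell viability assay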
# Description: SANGER: Inhibition of human AGS cell growth in a cell viability assay.
# ASPC1 = type: functional, cell-based, Homo sapiens; conditions: Homo sapiens, ASPC1;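 note: growth inhibition of AsPC-1 cells, read out with a cell viability assay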
# Description: SANGER: Inhibition of human AsPC-1 cell growth in a cell viability assay.
# BB65-RCC = type: functional, cell-based, Homo sapiens; conditions: Homo sapiens, BB65-RCC;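 note: growth inhibition of the cell line, measured with a cell viability assay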
# Description: SANGER: Inhibition of human BB65-RCC cell growth in a cell viability assay.
# BEN = type: functional, cell-based, Homo sapiens; conditions: Homo sapiens, BEN;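 note: growth inhibition of the BEN cell line, read out with a cell viability assay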
# Description: SANGER: Inhibition of human BEN cell growth in a cell viability assay.
# BFTC-905 = type: functional, cell-based, Homo sapiens; conditions: Homo sapiens, BFTC-905
# Description: SANGER: Inhibition of human BFTC-905 cell growth in a cell viability assay.
# CAL-12T = type: functional, cell-based, Homo sapiens; conditions: Homo sapiens, CAL-12T;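 note: growth inhibition of human CAL-12T cells, read out with a cell viability assay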
# Description: SANGER: Inhibition of human CAL-12T cell growth in a cell viability assay.
# CAL-27 = type: functional, cell-based, Homo sapiens; conditions: Homo sapiens, CAL-27;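 note: Viability-based readout, IC50 reflecting inhibition of CAL-27 cell growth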
# Description: SANGER: Inhibition of human CAL-27 cell growth in a cell viability assay.
# TE-11 = type: functional, cell-based, Homo sapiens; conditions: Homo sapiens, TE-11;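 note: growth inhibition of human TE-11 cells, read out by a cell viability assay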
# Description: SANGER: Inhibition of human TE-11 cell growth in a cell viability assay.
# TE-8 = type: functional, cell-based, Homo sapiens; conditions: Homo sapiens, TE-8;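 note: growth inhibition of TE-8 cells, measured with a cell viability readout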
# Description: SANGER: Inhibition of human TE-8 cell growth in a cell viability assay.
# UMUC3 = type: functional, cell-based, Homo sapiens; conditions: Homo sapiens, UMUC3;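 note: growth inhibition of human UM-UC-3 cells, read out with a cell viability assay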
# Description: SANGER: Inhibition of human UM-UC-3 cell growth in a cell viability assay.
# no-10 = type: functional, cell-based, Homo sapiens; conditions: Homo sapiens;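 note: growth inhibition of no-10 cells, read out with a cell viability assay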
# Description: SANGER: Inhibition of human no-10 cell growth in a cell viability assay.
# CHL-1 = type: functional, cell-based, Homo sapiens; conditions: Homo sapiens, CHL-1;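 note: cell growth inhibition, read out with a cell viability assay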
# Description: SANGER: Inhibition of human CHL-1 cell growth in a cell viability assay.
smiles,measurement,setting,value
COC(=O)CNC(=O)C(=O)OC,IC50,COLO-829,111 µM
same,IC50,Calu-3,65.7 µM
same,IC50,Calu-6,732 µM
same,IC50,D-247MG,2410 µM
same,IC50,D283 Med,521 µM
same,IC50,EGI-1,329 µM
same,IC50,EOL1,122 µM
same,IC50,G-402,1230 µM
same,IC50,GOTO,1150 µM
same,IC50,HCC2218,> 4000 µM
same,IC50,HH,34 µM
same,IC50,HT-29,846 µM
same,IC50,HuP-T3,404 µM
same,IC50,KLE,1580 µM
same,IC50,KP-N-YS,1680 µM
same,IC50,LAMA-84,2110 µM
same,IC50,LOX IMVI,344 µM
same,IC50,LS-1034,2570 µM
same,IC50,MFH-ino,644 µM
same,IC50,MHH-NB-11,> 4000 µM
same,IC50,MKN-1,2190 µM
same,IC50,MPP-89,1280 µM
same,IC50,MZ2-MEL,478 µM
same,IC50,NCI-H1693,3790 µM
same,IC50,NCI-H1993,331 µM
same,IC50,NCI-H2405,261 µM
same,IC50,NCI-H292,103 µM
same,IC50,NCI-H358,103 µM
same,IC50,SH-4,2420 µM
same,IC50,SK-MEL-2,1960 µM
same,IC50,SK-MES-1,221 µM
same,IC50,SW1783,156 µM
same,IC50,SW 962,265 µM
same,IC50,T-24,> 4000 µM
same,IC50,T98G,666 µM
same,IC50,TE-1,1010 µM
same,IC50,697,229 µM
same,IC50,786-0,> 4000 µM
same,IC50,A-375,176 µM
same,IC50,A704,1140 µM
same,IC50,AGS,629 µM
same,IC50,ASPC1,3920 µM
same,IC50,BB65-RCC,2380 µM
same,IC50,BEN,36.8 µM
same,IC50,BFTC-905,580 µM
same,IC50,CAL-12T,26.6 µM
same,IC50,CAL-27,> 4000 µM
same,IC50,TE-11,420 µM
same,IC50,TE-8,2640 µM
same,IC50,UMUC3,264 µM
same,IC50,no-10,995 µM
same,IC50,CHL-1,917 µM
